Data published in PubChem BioAssay (NCI).
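Method: 48-hour compound exposure of cells in 96-well plates, five concentrations, linear interpolation of endpoints. TGI marks complete inhibition of growth.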

Legend:
Test in all cases: inhibition of tumour cell growth, NCI panel, 48 h
HS 578T breast = tested on: HS 578T breast
EKVX NSCLC = tested on: EKVX NSCLC
HL-60(TB) leukemia = tested on: HL-60(TB) leukemia
MOLT-4 leukemia = tested on: MOLT-4 leukemia
ACHN renal = tested on: ACHN renal
HT29 colon = tested on: HT29 colon
T-47D breast = tested on: T-47D breast
OVCAR-8 ovarian = tested on: OVCAR-8 ovarian
SF-268 CNS = tested on: SF-268 CNS
CCRF-CEM leukemia = tested on: CCRF-CEM leukemia
A498 renal = tested on: A498 renal
HOP-92 NSCLC = tested on: HOP-92 NSCLC
K-562 leukemia = tested on: K-562 leukemia
HCT-15 colon = tested on: HCT-15 colon
IGROV1 ovarian = tested on: IGROV1 ovarian
SN12C renal = tested on: SN12C renal

SMILES | TGI (HS 578T breast) | TGI (EKVX NSCLC) | TGI (HL-60(TB) leukemia) | TGI (MOLT-4 leukemia) | TGI (ACHN renal) | TGI (HT29 colon) | TGI (T-47D breast) | TGI (OVCAR-8 ovarian) | TGI (SF-268 CNS) | TGI (CCRF-CEM leukemia) | TGI (A498 renal) | TGI (HOP-92 NSCLC) | TGI (K-562 leukemia) | TGI (HCT-15 colon) | TGI (IGROV1 ovarian) | TGI (SN12C renal)
CC(=O)c1ccc2c(c1)CC1(C2)Cc2cc3c(cc2C1=O)CCC3 (stereo unspecified) | 89.5 µM | 64.8 µM | 35.8 µM | 21.8 µM | 58.2 µM | > 100 µM | 88.5 µM | 36.1 µM | 88 µM | 59.2 µM | 51.7 µM | 65.5 µM | > 100 µM | 95.9 µM | 59 µM | 57.3 µM
CN(C)c1ccc(C(Cc2ccccc2)C2NC(=S)NC2=O)cc1 (stereo unspecified) | > 100 µM | > 100 µM | > 100 µM | > 100 µM | > 100 µM | > 100 µM | > 100 µM | > 100 µM | > 100 µM | > 100 µM | > 100 µM | > 100 µM | > 100 µM | > 100 µM | > 100 µM | > 100 µM
O=C(CCCN1CCC2(CC1)CC(c1ccccc1)OC2=O)c1ccc(F)cc1 (stereo unspecified) | 95.2 µM | > 100 µM | > 100 µM | 62.1 µM | > 100 µM | 35.2 µM | 69.1 µM | > 100 µM | > 100 µM | > 100 µM | 74.5 µM | 76.9 µM | 65.8 µM | > 100 µM | > 100 µM | > 100 µM
CCOC(=O)c1c(C)nc2c1c(CN(C)C)c(O)c1[nH]c(C)c(C)nc12 | 70.8 µM | 92 µM | 25.2 µM | 85.6 µM | 69.9 µM | 81.6 µM | 74.1 µM | 60.4 µM | 93.1 µM | 38.3 µM | 40 µM | 96.6 µM | > 100 µM | > 100 µM | > 100 µM | 38.4 µM
Cc1ccccc1-n1c(=O)c2ncn(C3CCCO3)c2n(-c2ccccc2C)c1=S (stereo unspecified) | > 100 µM | > 100 µM | > 100 µM | > 100 µM | > 100 µM | > 100 µM | > 100 µM | > 100 µM | > 100 µM | > 100 µM | > 100 µM | > 100 µM | > 100 µM | > 100 µM | > 100 µM | > 100 µM
O=C(NC1CCCCC1NC(c1ccccc1)(c1ccccc1)c1ccccc1)C(=O)NC1CCCCC1NC(c1ccccc1)(c1ccccc1)c1ccccc1 (stereo unspecified) | 72.5 µM | > 100 µM | > 100 µM | > 100 µM | > 100 µM | > 100 µM | > 100 µM | > 100 µM | > 100 µM | > 100 µM | > 100 µM | 60.5 µM | > 100 µM | > 100 µM | > 100 µM | > 100 µM
CCC1(c2ccccc2)C(=O)N=C(c2ccccc2)N1CCc1ccccc1 (stereo unspecified) | > 100 µM | > 100 µM | > 100 µM | > 100 µM | > 100 µM | > 100 µM | > 100 µM | > 100 µM | > 100 µM | > 100 µM | > 100 µM | > 100 µM | > 100 µM | > 100 µM | > 100 µM | > 100 µM
CNC(=O)C1(N)c2ccccc2C=Cc2ccccc21 | > 100 µM | > 100 µM | > 100 µM | > 100 µM | > 100 µM | > 100 µM | > 100 µM | > 100 µM | > 100 µM | > 100 µM | > 100 µM | > 100 µM | > 100 µM | > 100 µM | > 100 µM | > 100 µM
O=[N+]([O-])c1nccn1CCCNc1ccnc2cc(Cl)ccc12 | > 100 µM | > 100 µM | > 100 µM | > 100 µM | > 17.8 µM | 99.6 µM | > 89.9 µM | > 100 µM | > 65.6 µM | > 100 µM | > 70.9 µM | > 21 µM | > 100 µM | > 100 µM | > 100 µM | > 85.1 µM
COc1cc(/C=C/c2nc(NC(=S)Nc3ccccc3)nnc2C)cc(OC)c1OC | > 100 µM | > 100 µM | 34.1 µM | > 100 µM | 48.1 µM | 48.8 µM | 90.1 µM | > 100 µM | > 100 µM | 57.7 µM | 82.4 µM | > 100 µM | 78.2 µM | 37.1 µM | 93.7 µM | > 100 µM
C=CCN1C(=O)/C(=C/c2cccs2)N=C1SC/C=C/C | > 100 µM | > 100 µM | 62.2 µM | 44.6 µM | > 100 µM | > 100 µM | > 100 µM | > 100 µM | > 100 µM | > 100 µM | 98.8 µM | > 100 µM | > 100 µM | > 100 µM | > 100 µM | 86.6 µM
C[n+]1ccc(/C2=C3\C=CC(=N3)/C(c3cc[n+](C)cc3)=c3/cc/c([nH]3)=C(\c3cc[n+](C)cc3)C3=N/C(=C(/c4cc[n+](C)cc4)C4C=CC2N4)C=C3)cc1 | > 100 µM | > 100 µM | > 100 µM | > 100 µM | > 100 µM | > 100 µM | > 100 µM | > 100 µM | > 100 µM | > 100 µM | > 100 µM | > 100 µM | > 100 µM | > 100 µM | > 100 µM | > 100 µM
CC1=NNC(=O)C1C1CC(c2c[nH]c3ccccc23)=NNC1=O (stereo unspecified) | > 100 µM | > 100 µM | > 100 µM | > 100 µM | > 100 µM | > 100 µM | > 100 µM | > 100 µM | > 100 µM | > 100 µM | > 100 µM | > 100 µM | > 100 µM | > 100 µM | > 100 µM | > 100 µM
Oc1ccc(-c2cc(-c3cc(-c4ccc(O)cc4)no3)on2)cc1 | > 100 µM | > 100 µM | > 100 µM | 9.52 µM | > 100 µM | > 100 µM | > 100 µM | > 100 µM | > 100 µM | > 100 µM | > 100 µM | > 100 µM | > 100 µM | > 100 µM | > 100 µM | > 100 µM
COc1ccc(C(=O)/C=C/c2ccc(O)c(O)c2)c(OC)c1 | > 100 µM | > 79.6 µM | 2.53 µM | > 38.9 µM | > 70.3 µM | 32 µM | > 100 µM | > 86.6 µM | > 52.6 µM | > 32 µM | 21.2 µM | > 100 µM | > 37.6 µM | 24.3 µM | > 100 µM | 13.2 µM
O=C1OCC2OC(=O)c3cc(O)c(O)c(O)c3-c3c(O)c(O)c(O)c4c3C(=O)OC(C2OC(=O)c2cc(O)c(O)c(O)c2-c2c1cc(O)c(O)c2O)C1OC(=O)c2c-4c(O)c(O)c(O)c2[C@@H]1C(O)C(O)C(O)C(O)CO (stereo partly specified) | 70.3 µM | 51.1 µM | 50.8 µM | 49.8 µM | 30.7 µM | 36 µM | 45.2 µM | 44.1 µM | 47.4 µM | 23.7 µM | > 100 µM | 45.8 µM | 33.3 µM | 37.7 µM | 40.6 µM | 32.6 µM
